Measurements as given in patent publication US12240860B2, “Heterobicyclic carboxylic acids and salts thereof” (SHENZHEN IONOVA LIFE SCIENCE CO., LTD., priority 2018, dated 2025).

Test: DVS (Dynamic Vapor Sorption) moisture sorption/desorption
Format: physicochemical
Conditions: 25° C.
Experimental: DVS (Dynamic Vapor Sorption)
Around 20 mg of samples were used to test its moisture sorption/desorption profiles at 25° C. under 0%˜95%˜0% relative humidity (RH) cycle with the following parameters:
Equilibrium: dm/dt: 0.01%/min.
RH (%) measurement step scope: 0%95%0%; RH (%) measurement step: 5%

## Cc1sc2ccn(Cc3ccc(C(F)(F)F)cc3)c2c1C(=O)NC1(c2ccc(C(=O)O)cc2)CC1 [C003 free acid, 4-(1-{[2-Methyl-4-(4-trifluoromethyl-benzyl)-4H-thieno[3,2-b]pyrrole-3-carbonyl]-amino}-cyclopropyl)-benzoic acid]
  moisture at 80% RH (DVS): 3.175%
80% RH
  Hygroscopicity Classification (DVS): hygroscopic
